Values joined by “and” are separate entries in the source; they are usually repeats but may differ in a detail not shown here. Equal values may be shown once.
Legend:
[1] = biological target: HIS-Keap1 full length / Biotin-Nrf2 (16-mer) (Homo sapiens, UniProt Q14145); test: biochemical
[2] = tested on: NQO1 activation in BEAS-2B cells; test: BEAS-2B cellular MTT assay of NQO1 activation, 0% HSA; format: cell-based
Summary of the method: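 For the 0% HSA condition, cells were seeded into collagen plates in HSA-free medium. Culture was BEAS-2B in BEBM plus BEGM SingleQuots lacking GA-1000, held under 70% confluence, at a seeding density reaching 95-100% confluence by 48 h.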

[3] = tested on: NQO1 activation in BEAS-2B cells; test: BEAS-2B cellular MTT assay of NQO1 activation, 0.3% HSA; format: cell-based
Summary of the method: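 MTT read-out in BEAS-2B cells grown in BEBM with SingleQuots, no GA-1000, kept below 70% confluence; plates coated with collagen, with 0.3% or 0% HSA medium, seeded to 95-100% confluency at 48 h, 37 °C, 5% CO2.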

[4] = Homo sapiens, Serum Free W, read-out: BEAS EC50 (nM) Serum Free W
[5] = Serum Free W, read-out: BEAS EC50 (nM) Serum Free W
[6] = BEAS+ W, read-out: BEAS+ W EC50
[7] = Homo sapiens, BEAS+ W, read-out: BEAS+ W EC50
[8] = Homo sapiens, serum free, read-out: BEAS EC50 (nM) serum free
[9] = Homo sapiens, BEAS+, read-out: BEAS+ EC50
[10] = serum free, read-out: BEAS EC50 (nM) serum free

HIS-Keap1 full length / Biotin-Nrf2 (16-mer), sequence (Q14145 whole entry): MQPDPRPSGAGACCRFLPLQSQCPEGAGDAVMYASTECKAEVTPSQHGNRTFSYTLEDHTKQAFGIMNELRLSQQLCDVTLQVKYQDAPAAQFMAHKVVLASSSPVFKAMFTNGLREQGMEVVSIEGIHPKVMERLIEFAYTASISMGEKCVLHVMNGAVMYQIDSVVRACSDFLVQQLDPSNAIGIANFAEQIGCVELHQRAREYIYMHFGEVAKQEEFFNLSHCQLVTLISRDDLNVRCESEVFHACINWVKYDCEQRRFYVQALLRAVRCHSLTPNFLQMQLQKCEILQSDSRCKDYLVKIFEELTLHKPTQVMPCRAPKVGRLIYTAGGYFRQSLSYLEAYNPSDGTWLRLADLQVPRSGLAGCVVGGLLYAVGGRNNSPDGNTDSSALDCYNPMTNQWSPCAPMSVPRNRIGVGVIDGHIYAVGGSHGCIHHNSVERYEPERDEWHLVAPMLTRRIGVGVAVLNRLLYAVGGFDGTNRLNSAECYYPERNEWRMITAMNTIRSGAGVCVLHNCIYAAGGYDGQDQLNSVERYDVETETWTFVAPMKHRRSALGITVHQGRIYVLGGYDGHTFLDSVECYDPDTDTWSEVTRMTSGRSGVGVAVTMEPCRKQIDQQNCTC

SMILES	IC50 [1]	EC50 [2, 4]	EC50 [2, 5]	EC50 [3, 6]	EC50 [3, 7]	EC50 [2, 8]	EC50 [3, 9]	EC50 [2, 10]	EC50 ([3]; BEAS+, read-out: BEAS+ EC50)
Cc1c2cnc3c1nnn3CCCCCCOc1cc(F)c(c(F)c1)C(=O)N1CCc3ccc(cc3C1)[C@@H]2CC(=O)O [Compound 207]	1.4 nM	23.7 nM	32.1 nM	57.6 nM	65.4 nM	–	–	–	–
Cc1c2ccc3c1nnn3CCCCCCc1c(F)c(F)c(c(F)c1F)C(=O)N1CCc3ccc(cc3C1)[C@@H]2CC(=O)O [Compound 90]	1.1 nM	1.3 nM	1 nM	3.5 nM	3.6 nM	–	–	–	–
O=C(O)CC1c2ccc(nc2)OCCCCCc2cnc(nc2)C(=O)N2CCc3ccc1cc3C2 (centres unmarked) [Compound 196]	130 nM and 116 nM	–	–	–	–	> 10000 nM	> 10000 nM	–	–
Cc1c2ccc3c1nnn3CCCCCCc1ccc(nc1)C(=O)N1CCc3ccc(cc3C1)C2CC(=O)O (centres unmarked) [Compound 230]	4.8 nM	–	–	–	–	384 nM	1090 nM	471 nM	961 nM
O=C(O)C[C@@H]1c2cnc(nc2)OCCCCCc2c(F)c(F)c(c(F)c2F)C(=O)N2CCc3ccc1cc3C2 [Compound 44]	6.7 nM and 5.1 nM	393 nM	–	–	1560 nM	–	–	–	–
Cc1c2ccc3c1nnn3CCCCCc1ccc(cc1F)C(=O)N1CCc3ccc(cc3C1)C2CC(=O)O (centres unmarked) [Compound 267]	2.4 nM and 2.3 nM	–	–	–	–	3.9 nM	5.3 nM	–	–
Cc1c2cnc3c1nnn3CCCC/C=C/Cc1ccc(cc1)C(=O)N1CCc3ccc(cc3C1)[C@H]2CC(=O)O [Compound 352]	6.8 nM and 7.7 nM	21.9 nM	33 nM	481 nM	417 nM	–	–	–	–
Cc1cc2ccc1C(=O)N1CCc3ccc(cc3C1)C(CC(=O)O)c1ccc(nc1)OCCCCO2 (centres unmarked) [Compound 209]	0.4 nM and 0.5 nM	–	–	–	–	469 nM	843 nM	494 nM	903 nM
O=C(O)CC1c2ccc3c(c2)CN(CC3)C(=O)c2ccc(cc2)CCCCCn2nnc3cc1ccc32 (centres unmarked) [Compound 276]	2.2 nM and 2 nM and 2.1 nM	–	–	–	–	88.5 nM	49.3 nM	–	–
Cc1c2ccc3c1nnn3CCCCCc1ccc(c(F)c1)C(=O)N1CCc3ccc(cc3C1)C2CC(=O)O (centres unmarked) [Compound 266]	0.5 nM	–	–	–	–	2.1 nM	2.6 nM	–	–
Cc1nc2ncc1C(CC(=O)O)c1ccc3c(c1)CN(CC3)C(=O)c1ccc(c(Cl)c1)OCCCCO2 (centres unmarked) [Compound 186]	527 nM and 289 nM	–	–	–	–	> 10000 nM	> 10000 nM	–	–
O=C(O)CC1c2ccc3c(c2)CN(CC3)C(=O)c2ccc(cc2F)CCCCCn2nnc3c(Cl)c1ccc32 (centres unmarked) [Compound 145]	0.1 nM	–	–	–	–	0.6 nM	0.4 nM	0.5 nM	0.7 nM
COc1cc2ccc1CCCCCn1nnc3c(C)c(cnc31)[C@H](CC(=O)O)c1ccc3c(c1)CN(CC3)C2=O [Compound 87]	0.8 nM and 0.9 nM	13 nM	18.2 nM	38.1 nM	40.5 nM	–	–	–	–
Cc1c2ccc3c1nnn3CCCCCCOc1ccc(c3ccccc13)C(=O)N1CCc3ccc(cc3C1)C2CC(=O)O (centres unmarked) [Compound 284]	0.4 nM and 0.3 nM	–	–	–	–	3.4 nM	22.8 nM	–	–
Cc1cc2ccc1C(=O)N1CCc3ccc(cc3C1)C(C(C)(C)C(=O)O)c1ccc3c(c1)nnn3CCCCCCO2 (centres unmarked) [Compound 299]	< 0.1 nM	–	–	–	–	0.6 nM	3.6 nM	–	–
Cc1cc2cnc1OCCCCCc1ccc(cc1)C(=O)N1CCc3ccc(cc3C1)[C@H]2[C@H](C)C(=O)O [Compound 70]	594 nM and 763 nM	32.4 nM	29.9 nM	221 nM	150 nM	–	–	–	–
Cc1cc2ccc1C(=O)N1CCc3ccc(cc3C1)C(CC(=O)O)c1ccc3c(nnn3CCCCCCO2)c1C (centres unmarked) [Compound 297]	0.2 nM	–	–	–	–	1.8 nM	2.9 nM	–	–

SMILES	IC50 [1]	EC50 [2, 4]	EC50 [2, 5]	EC50 [3, 6]	EC50 [3, 7]	EC50 [2, 8]	EC50 [3, 9]	EC50 [2, 10]	EC50 ([3]; BEAS+, read-out: BEAS+ EC50)
O=C(O)CC1c2ccc3c(c2)CN(CC3)C(=O)c2ncc(cc2F)CCCCCn2nnc3c(Cl)c1ccc32 (centres unmarked) [Compound 215]	1 nM and 1.1 nM	–	–	–	–	243 nM	349 nM	251 nM	310 nM
Cc1c2cnc3c1nnn3CCCCCc1ccc(c(F)c1)C(=O)N1CCc3ccc(cc3C1)C2CC(=O)O (centres unmarked) [Compound 137]	0.3 nM	–	–	–	–	1.9 nM	1.9 nM	1.8 nM	2.8 nM
O=C(O)CC1c2ccc(nc2)OCCCCCc2ccc(cc2)C(=O)N2CCc3ccc1cc3C2 (centres unmarked) [Compound 300]	< 0.1 nM	–	–	–	–	3.1 nM	10.8 nM	5.4 nM	7.9 nM
Cc1cc2ccc1C(=O)N1CCc3ccc(cc3C1)C(CC(=O)O)c1cnc3c(nnn3CCCCCCO2)c1C (centres unmarked) [Compound 218]	0.8 nM	–	–	–	–	27.5 nM	29.3 nM	39.7 nM	37.5 nM
C[C@H](C(=O)O)[C@@H]1c2ccc(nc2)OCC/C=C/Cc2ccc(cc2)C(=O)N2CCc3ccc1cc3C2 [Compound 47]	26.4 nM	26.2 nM	26 nM and 28.7 nM	94.2 nM and 96.9 nM	140 nM	–	–	–	–
Cc1c2ccc3c1nnn3CCCCCCOc1ccc(nn1)C(=O)N1CCc3ccc(cc3C1)C2CC(=O)O (centres unmarked) [Compound 380]	5.9 nM and 5.4 nM	–	–	–	–	1460 nM	1230 nM	1390 nM	1440 nM
O=C(O)CC1c2ccc(nc2)OCCCCOc2ccc(cc2C(F)(F)F)C(=O)N2CCc3ccc1cc3C2 (centres unmarked) [Compound 184]	168 nM and 147 nM	–	–	–	–	471 nM	2900 nM	713 nM	2570 nM
Cn1c2cc3cc(ccc31)OCCCCCCn1nnc3cc(ccc31)C(CC(=O)O)c1ccc3c(c1)CN(CC3)C2=O (centres unmarked) [Compound 310]	0.3 nM and < 0.1 nM	–	–	–	–	698 nM	9100 nM	–	9570 nM
Cc1c2ccc3c1nnn3CCCCCCc1ccc3c(c1)cc(n3CCCF)C(=O)N1CCc3ccc(cc3C1)[C@@H]2CC(=O)O [Compound 69]	0.9 nM and 0.7 nM	7.7 nM	9 nM	549 nM	494 nM	–	–	–	–
Cc1c2ccc3c1nnn3CCCCCCOc1cc(F)c(c(F)c1)C(=O)N1CCc3ccc(cc3C1)C2CC(=O)O (centres unmarked) [Compound 315]	0.7 nM and 0.3 nM	–	–	–	–	2.2 nM	25.9 nM	–	–
Cc1c2cnc3c1nnn3CCCCCc1cccc3c1cc(n3C)C(=O)N1CCc3ccc(cc3C1)C2CC(=O)O (centres unmarked) [Compound 49]	0.6 nM (2×) and 0.4 nM and 0.5 nM	27 nM	28.8 nM	93.2 nM	117 nM	–	–	–	–
COc1cc2ccc1CCCCCn1nnc3c(C)c(cnc31)[C@@H](CC(=O)O)c1ccc3c(c1)CN(CC3)C2=O [Compound 86]	0.9 nM and 0.8 nM	18 nM	19.7 nM	25.7 nM	20.4 nM	–	–	–	–
Cc1c2ccc3c1nnn3CCCCCOc1ccc(c(F)c1)C(=O)N1CCc3ccc(cc3C1)[C@H]2CC(=O)O [Compound 259]	4.1 nM	–	–	–	–	20.2 nM	47.6 nM	18.7 nM	78.5 nM
Cc1c2ccc3c1nnn3CCCCCOc1ccc(c(F)c1)C(=O)N1CCc3ccc(cc3C1)C2CC(=O)O (centres unmarked) [Compound 316]	1.6 nM and 0.9 nM	–	–	–	–	141 nM	77.9 nM	–	–
Cc1c2cnc3c1nnn3CCCCCCCc1ccc(cc1)C(=O)N1CCc3ccc(cc3C1)[C@H]2CC(=O)O [Compound 67]	14 nM and 14.5 nM	23 nM	23.5 nM	166 nM	159 nM	–	–	–	–
Cc1cc2ncc1C(CC(=O)O)c1ccc3c(c1)CN(CC3)C(=O)c1cn(C)c3ccc(cc13)CCCCCO2 (centres unmarked) [Compound 126]	> 990 nM	> 1000 nM	–	–	> 10000 nM	–	–	–	–

Reference: patent US12692274B2, “Tetrahydroisoquinoline derivatives for the treatment of red blood disorders and inflammatory diseases” (Sanofi, priority 2020, dated 2026)
